Experimental data published in PubChem BioAssay (NCI).
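In this assay, cells in 96-well plates receive the compound at five concentrations for 48 hours. Endpoints are linearly interpolated between the surrounding concentrations. GI50: concentration for 50% inhibition of growth. TGI marks complete inhibition of growth.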

Assays:
Assay in all cases: NCI anticancer screen, dose series, 48 h
UO-31 renal = system: UO-31 renal
SF-539 CNS = system: SF-539 CNS
NCI-H460 lung = system: NCI-H460 lung
MALME-3M melanoma = system: MALME-3M melanoma
KM12 colon = system: KM12 colon
NCI/ADR-RES ovarian = system: NCI/ADR-RES ovarian
CCRF-CEM leukemia = system: CCRF-CEM leukemia
LOX IMVI melanoma = system: LOX IMVI melanoma
A549 NSCLC = system: A549 NSCLC
HOP-62 NSCLC = system: HOP-62 NSCLC
RPMI-8226 leukemia = system: RPMI-8226 leukemia
HT29 colon = system: HT29 colon
HOP-92 NSCLC = system: HOP-92 NSCLC
OVCAR-3 ovarian = system: OVCAR-3 ovarian
RXF 393 renal = system: RXF 393 renal
SF-295 CNS = system: SF-295 CNS
UACC-257 melanoma = system: UACC-257 melanoma
U251 CNS = system: U251 CNS
HS 578T breast = system: HS 578T breast
OVCAR-5 ovarian = system: OVCAR-5 ovarian
TK-10 renal = system: TK-10 renal
IGROV1 ovarian = system: IGROV1 ovarian
786-0 renal = system: 786-0 renal
SK-MEL-5 melanoma = system: SK-MEL-5 melanoma
MOLT-4 leukemia = system: MOLT-4 leukemia
HL-60(TB) leukemia = system: HL-60(TB) leukemia
SK-OV-3 ovarian = system: SK-OV-3 ovarian
EKVX NSCLC = system: EKVX NSCLC
NCI-H23 lung = system: NCI-H23 lung
SNB-75 CNS = system: SNB-75 CNS
SNB-19 CNS = system: SNB-19 CNS
DU-145 prostate = system: DU-145 prostate
ACHN renal = system: ACHN renal
M14 melanoma = system: M14 melanoma
BT-549 breast = system: BT-549 breast
OVCAR-4 ovarian = system: OVCAR-4 ovarian
COLO 205 colon = system: COLO 205 colon
HCC-2998 colon = system: HCC-2998 colon
HCT-116 colon = system: HCT-116 colon
UACC-62 melanoma = system: UACC-62 melanoma
SK-MEL-28 melanoma = system: SK-MEL-28 melanoma
T-47D breast = system: T-47D breast
MDA-MB-231 breast = system: MDA-MB-231 breast
SK-MEL-2 melanoma = system: SK-MEL-2 melanoma
HCT-15 colon = system: HCT-15 colon
OVCAR-8 ovarian = system: OVCAR-8 ovarian
SW-620 colon = system: SW-620 colon
NCI-H226 lung = system: NCI-H226 lung
SF-268 CNS = system: SF-268 CNS
K-562 leukemia = system: K-562 leukemia
PC-3 prostate = system: PC-3 prostate
MDA-MB-435 = system: MDA-MB-435
MCF7 breast = system: MCF7 breast
NCI-H522 lung = system: NCI-H522 lung
SN12C renal = system: SN12C renal
CAKI-1 renal = system: CAKI-1 renal
A498 renal = system: A498 renal
SR leukemia = system: SR leukemia

## CC1=C(C)C(=O)C(Nc2cccc(C(F)(F)F)c2)=C(Cl)C1=O
UO-31 renal
  GI50: 1.46 µM
  TGI: 4.18 µM
SF-539 CNS
  GI50: 2.4 µM
  TGI: 6.61 µM
NCI-H460 lung
  GI50: 11.6 µM
  TGI: 32.2 µM
MALME-3M melanoma
  GI50: 1.98 µM
  TGI: 6.04 µM
KM12 colon
  GI50: 3.58 µM
  TGI: 25.7 µM
NCI/ADR-RES ovarian
  GI50: 3.16 µM
  TGI: 42.3 µM
CCRF-CEM leukemia
  GI50: 1.93 µM
  TGI: > 100 µM
LOX IMVI melanoma
  GI50: 1.69 µM
  TGI: 3.32 µM
A549 NSCLC
  GI50: 13.3 µM
  TGI: > 100 µM
HOP-62 NSCLC
  GI50: 11.5 µM
  TGI: 27.6 µM
RPMI-8226 leukemia
  GI50: 1.32 µM
  TGI: 7.32 µM
HT29 colon
  GI50: 7.29 µM
  TGI: 51.8 µM
HOP-92 NSCLC
  GI50: 1.5 µM
  TGI: 3.04 µM
OVCAR-3 ovarian
  GI50: 2.31 µM
  TGI: 5.58 µM
RXF 393 renal
  GI50: 1.49 µM
  TGI: 2.85 µM
SF-295 CNS
  GI50: 6.55 µM
  TGI: 24 µM
UACC-257 melanoma
  GI50: 2.61 µM
  TGI: 6.72 µM
U251 CNS
  GI50: 4.45 µM
  TGI: 17.9 µM
HS 578T breast
  GI50: 6 µM
  TGI: 64.4 µM
OVCAR-5 ovarian
  GI50: 1.98 µM
  TGI: 4.13 µM
TK-10 renal
  GI50: 19 µM
  TGI: 37 µM
IGROV1 ovarian
  GI50: 1.42 µM
  TGI: 3.19 µM
786-0 renal
  GI50: 10.6 µM
  TGI: 24.3 µM
SK-MEL-5 melanoma
  GI50: 4.14 µM
  TGI: 15.7 µM
MOLT-4 leukemia
  GI50: 2.22 µM
  TGI: > 100 µM
HL-60(TB) leukemia
  GI50: 2.34 µM
  TGI: 6.54 µM
SK-OV-3 ovarian
  GI50: 13 µM
  TGI: 50.7 µM
EKVX NSCLC
  GI50: 1.49 µM
  TGI: 3.73 µM
NCI-H23 lung
  GI50: 6.87 µM
  TGI: 24 µM
SNB-75 CNS
  GI50: 1.16 µM
  TGI: 13.6 µM
SNB-19 CNS
  GI50: 5.83 µM
  TGI: 23.4 µM
DU-145 prostate
  GI50: 15.6 µM
  TGI: 34.8 µM
ACHN renal
  GI50: 1.73 µM
  TGI: 3.18 µM
M14 melanoma
  GI50: 9.96 µM
  TGI: 32.7 µM
BT-549 breast
  GI50: 8.56 µM
  TGI: 22.2 µM
OVCAR-4 ovarian
  GI50: 1.58 µM
  TGI: 2.97 µM
COLO 205 colon
  GI50: 13 µM
  TGI: 29.3 µM
HCC-2998 colon
  GI50: 5.88 µM
  TGI: 18.4 µM
HCT-116 colon
  GI50: 1.93 µM
  TGI: 3.99 µM
UACC-62 melanoma
  GI50: 3.46 µM
  TGI: 16.1 µM
SK-MEL-28 melanoma
  GI50: 3.36 µM
  TGI: 10.8 µM
T-47D breast
  GI50: 1.17 µM
  TGI: 3.6 µM
MDA-MB-231 breast
  GI50: 1.59 µM
  TGI: 3.28 µM
SK-MEL-2 melanoma
  GI50: 8.26 µM
  TGI: 21.7 µM
HCT-15 colon
  GI50: 2.2 µM
  TGI: 5.05 µM
OVCAR-8 ovarian
  GI50: 2.68 µM
  TGI: 6.89 µM
SW-620 colon
  GI50: 2.09 µM
  TGI: 4.73 µM
NCI-H226 lung
  GI50: 10.8 µM
  TGI: 34.8 µM
SF-268 CNS
  GI50: 4.99 µM
  TGI: 28.6 µM
K-562 leukemia
  GI50: 2.4 µM
  TGI: > 100 µM
PC-3 prostate
  GI50: 2.67 µM
  TGI: 12.8 µM
MDA-MB-435
  GI50: 5.98 µM
  TGI: 19.5 µM
MCF7 breast
  GI50: 1.71 µM
  TGI: 3.79 µM
NCI-H522 lung
  GI50: 2.24 µM
  TGI: 5.66 µM
SN12C renal
  GI50: 4.25 µM
  TGI: 23.4 µM
CAKI-1 renal
  GI50: 1.94 µM
  TGI: 9.11 µM
A498 renal
  GI50: 13.7 µM
  TGI: 45.2 µM

## CC1=C2C(=C[C@@](C)(COC(=O)c3ccc(S(=O)(=O)F)cc3)[C@@H]2OC(=O)c2ccc(S(=O)(=O)F)cc2)C(=O)[C@](C)(O)C12CC2
UO-31 renal
  GI50: 0.815 µM
  TGI: 3.22 µM
SF-539 CNS
  GI50: 1.56 µM
  TGI: 3.96 µM
NCI-H460 lung
  GI50: 0.206 µM
  TGI: 0.48 µM
MALME-3M melanoma
  GI50: 1.16 µM
  TGI: 2.94 µM
KM12 colon
  GI50: 2.95 µM
  TGI: 12.7 µM
NCI/ADR-RES ovarian
  GI50: 0.698 µM
  TGI: 9.63 µM
CCRF-CEM leukemia
  GI50: 2.28 µM
  TGI: 15.3 µM
LOX IMVI melanoma
  GI50: 1.15 µM
  TGI: 6.38 µM
A549 NSCLC
  GI50: 3.04 µM
  TGI: 9.27 µM
HOP-62 NSCLC
  GI50: 1.46 µM
  TGI: 5.88 µM
RPMI-8226 leukemia
  GI50: 3.34 µM
  TGI: 17.5 µM
HT29 colon
  GI50: 0.406 µM
  TGI: 6.4 µM
HOP-92 NSCLC
  GI50: 2.11 µM
  TGI: 5.62 µM
OVCAR-3 ovarian
  GI50: 0.549 µM
  TGI: 3.9 µM
RXF 393 renal
  GI50: 0.337 µM
  TGI: 0.965 µM
SF-295 CNS
  GI50: 2.4 µM
  TGI: 7.63 µM
UACC-257 melanoma
  GI50: 1.88 µM
  TGI: 3.69 µM
U251 CNS
  GI50: 1.62 µM
  TGI: 5.42 µM
HS 578T breast
  GI50: 2.37 µM
  TGI: 6.63 µM
OVCAR-5 ovarian
  GI50: 0.558 µM
  TGI: 4.33 µM
TK-10 renal
  GI50: 2.75 µM
  TGI: 6.87 µM
IGROV1 ovarian
  GI50: 0.478 µM
  TGI: 6.42 µM
786-0 renal
  GI50: 1.4 µM
  TGI: 4.68 µM
SK-MEL-5 melanoma
  GI50: 1.48 µM
  TGI: 2.92 µM
MOLT-4 leukemia
  GI50: 1.01 µM
  TGI: 8.73 µM
HL-60(TB) leukemia
  GI50: 0.433 µM
  TGI: 3.14 µM
EKVX NSCLC
  GI50: 3.04 µM
  TGI: 9.33 µM
SNB-75 CNS
  GI50: 1.35 µM
  TGI: 2.66 µM
SNB-19 CNS
  GI50: 2.54 µM
  TGI: 14.2 µM
DU-145 prostate
  GI50: 0.373 µM
  TGI: 5.48 µM
SR leukemia
  GI50: 0.48 µM
  TGI: 10.2 µM
M14 melanoma
  GI50: 1.36 µM
  TGI: 3.32 µM
BT-549 breast
  GI50: 1.26 µM
  TGI: 3.01 µM
OVCAR-4 ovarian
  GI50: 1.78 µM
  TGI: 7.51 µM
COLO 205 colon
  GI50: 0.638 µM
  TGI: 2.25 µM
HCC-2998 colon
  GI50: 1.31 µM
  TGI: 3.06 µM
HCT-116 colon
  GI50: 0.319 µM
  TGI: 1.92 µM
UACC-62 melanoma
  GI50: 1.64 µM
  TGI: 4 µM
SK-MEL-28 melanoma
  GI50: 1.71 µM
  TGI: 3.88 µM
T-47D breast
  GI50: 1.23 µM
  TGI: 4.5 µM
MDA-MB-231 breast
  GI50: 1.54 µM
  TGI: 7.41 µM
SK-MEL-2 melanoma
  GI50: 1.76 µM
  TGI: 3.41 µM
HCT-15 colon
  GI50: 0.439 µM
  TGI: 4.42 µM
OVCAR-8 ovarian
  GI50: 0.631 µM
  TGI: 4.01 µM
SW-620 colon
  GI50: 0.607 µM
  TGI: 10.2 µM
SF-268 CNS
  GI50: 0.705 µM
  TGI: 9.1 µM
K-562 leukemia
  GI50: 0.733 µM
  TGI: 13 µM
PC-3 prostate
  GI50: 1.07 µM
  TGI: 11.3 µM
MDA-MB-435
  GI50: 1.48 µM
  TGI: 3.71 µM
MCF7 breast
  GI50: 0.342 µM
  TGI: 3.96 µM
NCI-H522 lung
  GI50: 0.474 µM
  TGI: 2.1 µM
SN12C renal
  GI50: 1.73 µM
  TGI: 11.5 µM
CAKI-1 renal
  GI50: 0.466 µM
  TGI: 10.8 µM
A498 renal
  GI50: 1.82 µM
  TGI: 4.29 µM
